Assay results as given in publication PMC11555678, “Improved Broad Spectrum Antifungal Drug Synergies with Cryptomycin, a Cdc50-Inspired Antifungal Peptide” (ACS Infectious Diseases, 2024).
≈ marks a conversion by molar mass, not a printed value. Where two headings read alike, the source gives them in different places.

Assays:
Cn MRL862 = assay type: cell-based, Cryptococcus neoformans; details: RPMI1640, 37 °C, 48 h
Protocol: (§1) All microdilution assays with fungi were carried out in accordance with CLSI protocols from M27 for yeasts and M38 for filamentous fungi, respectively, unless otherwise specified.[64],[65] Briefly, 96-well plates were charged with RPMI1640 media, with operating volume in the first column, 200 μL, and half operating volume, 100 μL, in the remaining wells. Drug stock solution in DMSO was aliquoted into the first well in each row. Half of the volume in the dosed well was serially diluted 2-fold until column 11. Column 11 was used as the negative growth control, and column 12 was used as the positive growth control. ON yeast cultures in YPD were washed twice in DD-H2O, resuspended in PBS, and adjusted to 5000 cfu/mL in RPMI. The 96-well plate was inoculated with 100 μL aliquots of cell suspension per well. Plates were incubated at 37 °C for 2 days.
(§2) To assess drug synergy, the initial media charged to the plate contained the peptide at twice the final operating concentration; the remaining processing steps were identical to the MIC experiment. Upon addition of 100 μL of inoculant, the final operating concentration was achieved. Control MIC plates were prepared alongside drug synergy plates to account for the day-to-day variability in any individual MIC. FIC index is computed using eq 1. All MIC assays and drug synergy assays were completed with two technical replicates per 96-well plate and a minimum of two biological replicates per drug combination. If a difference in MIC between the two technical replicates on the plate were observed, only the higher concentration was reported as the MIC to reduce the possibility of type 1 error (false positive) [drawing 1] 1

C. neoformans cdc50Δ = assay: microbe, parasite or virus in culture; assay type: cell-based, Cryptococcus neoformans; details: Cryptococcus neoformans, 48 h
Summary of the method: (§3)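 CLSI M27 yeast microdilution; RPMI1640; 2-fold serial dilution of drug (DMSO stock); inoculum 5000 cfu/mL from washed overnight YPD cultures; 37 °C, 2 d.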

C. neoformans apt1Δ = assay: microbe, parasite or virus in culture; assay type: cell-based, Cryptococcus neoformans; details: Cryptococcus neoformans, 48 h
Summary of the method: as §3

C. neoformans crm1Δ = assay: microbe, parasite or virus in culture; assay type: cell-based, Cryptococcus neoformans; details: Cryptococcus neoformans, 48 h
Summary of the method: as §3

C. neoformans MRL862 = assay: microbe, parasite or virus in culture; assay type: cell-based, Cryptococcus neoformans; details: RPMI1640, 37 °C, 48 h
Summary of the method: as §3

C. neoformans apt3Δ = assay: microbe, parasite or virus in culture; assay type: cell-based, Cryptococcus neoformans; details: Cryptococcus neoformans, 48 h
Summary of the method: as §3

C. neoformans H99 [1] = assay: microbe, parasite or virus in culture; assay type: cell-based, Cryptococcus neoformans; details: Cryptococcus neoformans, H99; compound alone; RPMI1640, 37 °C, 48 h; read-out: MIC
Summary of the method: as §3

C. neoformans Crm1^OE = assay: microbe, parasite or virus in culture; assay type: cell-based, Cryptococcus neoformans; details: Cryptococcus neoformans, 48 h
Summary of the method: as §3

C. neoformans apt4Δ = assay: microbe, parasite or virus in culture; assay type: cell-based, Cryptococcus neoformans; details: Cryptococcus neoformans, 48 h
Summary of the method: as §3

C. neoformans apt2Δ = assay: microbe, parasite or virus in culture; assay type: cell-based, Cryptococcus neoformans; details: Cryptococcus neoformans, 48 h
Summary of the method: as §3

C. neoformans H99 [2] = assay type: cell-based, Cryptococcus neoformans; details: RPMI1640, 37 °C; for MIC of antifungal in combination with KKOO / MIC of antifungal in combination with KKOO-NH2: 48 h
Protocol: as §1, with “Plates were incubated at 37 °C for 2 days.” left out
as §2

C. albicans SC5413 = assay: microbe, parasite or virus in culture; assay type: cell-based, Candida albicans; details: Candida albicans, SC5413; compound alone; RPMI1640, 37 °C, 48 h; read-out: MIC
Summary of the method: as §3

A. fumigatus AF293 [3] = assay: microbe, parasite or virus in culture; assay type: cell-based, Aspergillus fumigatus
Protocol: as §1

A. fumigatus AF293 [4] = assay: Drug synergy (MIC in peptide-supplemented media); assay type: cell-based, Aspergillus fumigatus; details: RPMI1640, 37 °C, 48 h; for MIC of antifungal in combination with KKOO-NH2: MIC = well with <20% growth
Protocol: as §1, §2

C. glabrata 2001 = assay type: cell-based, Candida glabrata; details: RPMI1640, 37 °C, 48 h
Protocol: as §1, §2

Cg FKS2 S663P = assay: Drug synergy (MIC in peptide-supplemented media); assay type: cell-based, Candida glabrata; details: RPMI1640, 37 °C, 48 h
Protocol: as §1, §2

C. auris B11245 = assay: microbe, parasite or virus in culture; assay type: cell-based, Candida auris
Protocol: as §1

[5] = compound alone, RPMI1640, 37 °C, 48 h, * = paradoxical growth observed (CAS)

## OC(Cn1cncn1)(Cn1cncn1)c1ccc(F)cc1F [FLC, fluconazole]
Cn MRL862; +0 μg/mL KKOO (control)
  MIC of antifungal in combination with KKOO: 32 µg/mL
Cn MRL862; +0 μg/mL KKOO-NH2 (control)
  MIC of antifungal in combination with KKOO-NH2: 32 µg/mL
Cn MRL862; +1 μg/mL KKOO-NH2
  MIC of antifungal in combination with KKOO-NH2: 32 µg/mL
Cn MRL862; +1 μg/mL KKOO
  MIC of antifungal in combination with KKOO: 64 µg/mL
Cn MRL862; +2 μg/mL KKOO-NH2
  MIC of antifungal in combination with KKOO-NH2: 32 µg/mL
Cn MRL862; +2 μg/mL KKOO
  MIC of antifungal in combination with KKOO: 32 µg/mL
Cn MRL862; +4 μg/mL KKOO-NH2
  MIC of antifungal in combination with KKOO-NH2: 32 µg/mL
Cn MRL862; +4 μg/mL KKOO
  MIC of antifungal in combination with KKOO: 32 µg/mL
C. neoformans cdc50Δ
  MIC: 0.125 µg/mL (≈ 0.408 µM)
C. neoformans apt1Δ
  MIC: 0.5 µg/mL (≈ 1.63 µM)
C. neoformans crm1Δ
  MIC: 2 µg/mL (≈ 6.53 µM)
C. neoformans MRL862; Cryptococcus neoformans, MRL862, compound alone, read-out: MIC
  MIC: 32 µg/mL (≈ 104 µM)
C. neoformans MRL862
  MIC relative to wild-type strain H99 (higher): 16 fold
C. neoformans apt3Δ
  MIC: 2 µg/mL (≈ 6.53 µM)
C. neoformans H99 [1]
  MIC: 2 µg/mL (≈ 6.53 µM)
C. neoformans Crm1^OE
  MIC: 0.25 µg/mL (≈ 0.816 µM)
C. neoformans apt4Δ
  MIC: 2 µg/mL (≈ 6.53 µM)
C. neoformans apt2Δ
  MIC: 2 µg/mL (≈ 6.53 µM)
C. neoformans H99 [2]; +0 μg/mL (FITC)KKOO
  MIC of antifungal in combination with (FITC)KKOO: 2 µg/mL
C. neoformans H99 [2]; +0 μg/mL KKOO (control)
  MIC of antifungal in combination with KKOO: 2 µg/mL
C. neoformans H99 [2]; +0 μg/mL KKOO-NH2 (control)
  MIC of antifungal in combination with KKOO-NH2: 2 µg/mL
C. neoformans H99 [2]; +1 μg/mL KKOO-NH2
  MIC of antifungal in combination with KKOO-NH2: 2 µg/mL
C. neoformans H99 [2]; +1 μg/mL KKOO
  MIC of antifungal in combination with KKOO: 2 µg/mL
C. neoformans H99 [2]; +2 μg/mL KKOO-NH2
  MIC of antifungal in combination with KKOO-NH2: 2 µg/mL
C. neoformans H99 [2]; +2 μg/mL KKOO
  MIC of antifungal in combination with KKOO: 2 µg/mL
C. neoformans H99 [2]; +4 μg/mL (FITC)KKOO
  MIC of antifungal in combination with (FITC)KKOO: 2 µg/mL
C. neoformans H99 [2]; +4 μg/mL KKOO-NH2
  MIC of antifungal in combination with KKOO-NH2: 1 µg/mL
C. neoformans H99 [2]; +4 μg/mL KKOO
  MIC of antifungal in combination with KKOO: 2 µg/mL
C. neoformans H99 [2]; +8 μg/mL (FITC)KKOO
  MIC of antifungal in combination with (FITC)KKOO: 2 µg/mL
C. neoformans H99 [2]; +8 μg/mL KKOO
  MIC of antifungal in combination with KKOO: 1 µg/mL
C. albicans SC5413
  MIC: > 16 µg/mL
A. fumigatus AF293 [3]; Aspergillus fumigatus, AF293, 48 h
  MIC: > 128 µg/mL
A. fumigatus AF293 [3]; [5]
  MIC: >128 µg/mL
A. fumigatus AF293 [4]; +0 μg/mL KKOO (control), CAS: paradoxical growth, MIC = <20% growth
  MIC of antifungal in combination with KKOO: > 128 µg/mL
A. fumigatus AF293 [4]; +0 μg/mL KKOO-NH2 (control), CAS: paradoxical growth
  MIC of antifungal in combination with KKOO-NH2: >128 µg/mL
A. fumigatus AF293 [4]; +1 μg/mL KKOO-NH2, CAS: paradoxical growth
  MIC of antifungal in combination with KKOO-NH2: >128 µg/mL
A. fumigatus AF293 [4]; +1 μg/mL KKOO, CAS: paradoxical growth, MIC = <20% growth
  MIC of antifungal in combination with KKOO: > 128 µg/mL
A. fumigatus AF293 [4]; +2 μg/mL KKOO-NH2, CAS: paradoxical growth
  MIC of antifungal in combination with KKOO-NH2: >128 µg/mL
A. fumigatus AF293 [4]; +2 μg/mL KKOO, CAS: paradoxical growth, MIC = <20% growth
  MIC of antifungal in combination with KKOO: > 128 µg/mL
A. fumigatus AF293 [4]; +4 μg/mL KKOO-NH2, CAS: paradoxical growth
  MIC of antifungal in combination with KKOO-NH2: >128 µg/mL
A. fumigatus AF293 [4]; +4 μg/mL KKOO, CAS: paradoxical growth, MIC = <20% growth
  MIC of antifungal in combination with KKOO: > 128 µg/mL
A. fumigatus AF293 [4]; +8 μg/mL KKOO-NH2, CAS: paradoxical growth
  MIC of antifungal in combination with KKOO-NH2: >128 µg/mL
A. fumigatus AF293 [4]; +8 μg/mL KKOO
  MIC of antifungal in combination with KKOO: > 128 µg/mL
C. glabrata 2001; +0 μg/mL KKOO (control)
  MIC of antifungal in combination with KKOO: 8 µg/mL
C. glabrata 2001; +0 μg/mL KKOO-NH2 (control)
  MIC of antifungal in combination with KKOO-NH2: 8 µg/mL
C. glabrata 2001; +1 μg/mL KKOO-NH2
  MIC of antifungal in combination with KKOO-NH2: 8 µg/mL
C. glabrata 2001; +1 μg/mL KKOO
  MIC of antifungal in combination with KKOO: 8 µg/mL
C. glabrata 2001; +2 μg/mL KKOO-NH2
  MIC of antifungal in combination with KKOO-NH2: 8 µg/mL
C. glabrata 2001; +2 μg/mL KKOO
  MIC of antifungal in combination with KKOO: 8 µg/mL
C. glabrata 2001; +4 μg/mL KKOO-NH2
  MIC of antifungal in combination with KKOO-NH2: 8 µg/mL
C. glabrata 2001; +4 μg/mL KKOO
  MIC of antifungal in combination with KKOO: 4 µg/mL
C. glabrata 2001; +8 μg/mL KKOO
  MIC of antifungal in combination with KKOO: 4 µg/mL
Cg FKS2 S663P; +0 μg/mL KKOO (control)
  MIC of antifungal in combination with KKOO: 0.5 µg/mL
Cg FKS2 S663P; +0 μg/mL KKOO-NH2 (control)
  MIC of antifungal in combination with KKOO-NH2: 0.5 µg/mL
Cg FKS2 S663P; +1 μg/mL KKOO-NH2
  MIC of antifungal in combination with KKOO-NH2: 0.5 µg/mL
Cg FKS2 S663P; +1 μg/mL KKOO
  MIC of antifungal in combination with KKOO: 0.5 µg/mL
Cg FKS2 S663P; +2 μg/mL KKOO-NH2
  MIC of antifungal in combination with KKOO-NH2: 0.5 µg/mL
Cg FKS2 S663P; +2 μg/mL KKOO
  MIC of antifungal in combination with KKOO: 0.5 µg/mL
Cg FKS2 S663P; +4 μg/mL KKOO-NH2
  MIC of antifungal in combination with KKOO-NH2: 0.5 µg/mL
Cg FKS2 S663P; +4 μg/mL KKOO
  MIC of antifungal in combination with KKOO: 0.5 µg/mL
C. auris B11245; Candidozyma auris, B11245, 48 h
  MIC: > 128 µg/mL
C. auris B11245; [5]
  MIC: >128 µg/mL
